ChEMBL document CHEMBL5038676, “Novel RIPK1 Inhibitors for Treating Neurodegenerative, Autoimmune, and Inflammatory Diseases” (ACS Med Chem Lett, 2022)

These compounds were tested against T1, Receptor-interacting serine/threonine-protein kinase 1 (Homo sapiens, UniProt Q13546) (assay: Inhibition of recombinant N-terminal GST-tagged human RIPK1 (1 to 327 residues) expressed in baculovirus infected Sf9 insect cells preincubated for 40 mins followed by substrate addition and measured after 60 mins by ADP-glo luminescence assay).
T1 sequence (Q13546 whole entry): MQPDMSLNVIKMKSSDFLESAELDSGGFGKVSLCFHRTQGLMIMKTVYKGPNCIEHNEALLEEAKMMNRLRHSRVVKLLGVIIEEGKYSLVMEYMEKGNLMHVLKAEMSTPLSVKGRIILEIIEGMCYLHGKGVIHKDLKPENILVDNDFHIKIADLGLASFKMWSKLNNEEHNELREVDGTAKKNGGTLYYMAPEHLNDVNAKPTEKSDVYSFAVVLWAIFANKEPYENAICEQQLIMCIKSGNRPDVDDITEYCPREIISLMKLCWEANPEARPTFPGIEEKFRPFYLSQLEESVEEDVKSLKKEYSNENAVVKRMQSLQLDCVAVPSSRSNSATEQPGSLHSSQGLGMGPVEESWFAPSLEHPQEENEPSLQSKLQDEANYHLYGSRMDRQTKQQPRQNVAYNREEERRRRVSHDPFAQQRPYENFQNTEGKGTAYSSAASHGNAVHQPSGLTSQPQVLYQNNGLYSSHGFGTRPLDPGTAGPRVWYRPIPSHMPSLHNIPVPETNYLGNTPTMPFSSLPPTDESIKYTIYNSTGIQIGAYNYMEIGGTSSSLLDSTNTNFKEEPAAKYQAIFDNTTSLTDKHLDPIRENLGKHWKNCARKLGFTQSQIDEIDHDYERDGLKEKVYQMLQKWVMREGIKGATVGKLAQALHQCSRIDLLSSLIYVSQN

Row | SMILES | EC50 [nM]
1 | C[C@H]1[C@@H](Oc2ccc(F)cc2)CN1C(=O)N1N=CC[C@H]1c1ccc(Cl)cc1 | < 5.1
2 | O=C(N1CC(Sc2ccc(Br)cc2)C1)N1N=CC[C@H]1c1cc(F)cc(F)c1 | 5.9
3 | O=C(c1ccccc1)C1CN(C(=O)N2N=CC[C@H]2c2cc(F)cc(F)c2)C1 | 5.6

Continued, values first:

Row | EC50 [nM] | SMILES
4 | 3.1 | O=C(N1CC(Oc2ccccc2F)C1)N1N=CC[C@H]1c1cc(F)cc(F)c1
5 | 3.8 | O=C(N1CC(Oc2ccccc2)C1)N1N=CC[C@H]1c1cc(F)cc(F)c1
